Structures are written as SMILES. Calls of active or inactive are those of the source. The calls are words filed in the database; no cut-off is given here.

The values that follow come from ChEMBL document CHEMBL4229561, “Design, synthesis, and biological evaluation of selective and potent Carbazole-based butyrylcholinesterase inhibitors” (Bioorg Med Chem, 2018).

A short description of data set [1]: Selectivity index, ratio of IC50 for electric eel AChE to IC50 for equine serum BuChE.
Data set [2] deals with T1, Cholinesterase (Equus caballus, UniProt P81908). In words: Inhibition of equine serum BuChE using butyrylthiocholine iodide as substrate preincubated for 10 mins followed by substrate addition measured for 5 mins by Ellman's method.
T1 sequence (P81908 whole entry): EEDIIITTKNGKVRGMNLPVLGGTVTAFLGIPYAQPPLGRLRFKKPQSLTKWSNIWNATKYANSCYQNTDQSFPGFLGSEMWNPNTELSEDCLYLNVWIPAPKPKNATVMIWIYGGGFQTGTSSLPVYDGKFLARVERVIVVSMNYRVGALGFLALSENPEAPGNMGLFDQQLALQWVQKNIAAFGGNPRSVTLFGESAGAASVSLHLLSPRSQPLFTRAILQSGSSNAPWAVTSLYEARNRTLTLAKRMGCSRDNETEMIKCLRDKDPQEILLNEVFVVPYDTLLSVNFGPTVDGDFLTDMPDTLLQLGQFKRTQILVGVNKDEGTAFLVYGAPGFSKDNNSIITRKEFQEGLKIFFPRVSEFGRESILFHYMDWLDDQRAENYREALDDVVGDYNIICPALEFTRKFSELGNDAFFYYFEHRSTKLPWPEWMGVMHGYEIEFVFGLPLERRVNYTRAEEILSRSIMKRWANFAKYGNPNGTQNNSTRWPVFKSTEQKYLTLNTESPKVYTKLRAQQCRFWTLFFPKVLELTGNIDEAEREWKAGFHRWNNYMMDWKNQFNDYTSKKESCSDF
The target of data set [3] is Acetylcholinesterase (Electrophorus electricus, UniProt O42275). In words: Inhibition of electric eel AChE using acetylthiocholine iodide as substrate preincubated for 10 mins followed by substrate addition measured for 5 mins by Ellman's method.
Chain of Acetylcholinesterase (O42275 whole entry): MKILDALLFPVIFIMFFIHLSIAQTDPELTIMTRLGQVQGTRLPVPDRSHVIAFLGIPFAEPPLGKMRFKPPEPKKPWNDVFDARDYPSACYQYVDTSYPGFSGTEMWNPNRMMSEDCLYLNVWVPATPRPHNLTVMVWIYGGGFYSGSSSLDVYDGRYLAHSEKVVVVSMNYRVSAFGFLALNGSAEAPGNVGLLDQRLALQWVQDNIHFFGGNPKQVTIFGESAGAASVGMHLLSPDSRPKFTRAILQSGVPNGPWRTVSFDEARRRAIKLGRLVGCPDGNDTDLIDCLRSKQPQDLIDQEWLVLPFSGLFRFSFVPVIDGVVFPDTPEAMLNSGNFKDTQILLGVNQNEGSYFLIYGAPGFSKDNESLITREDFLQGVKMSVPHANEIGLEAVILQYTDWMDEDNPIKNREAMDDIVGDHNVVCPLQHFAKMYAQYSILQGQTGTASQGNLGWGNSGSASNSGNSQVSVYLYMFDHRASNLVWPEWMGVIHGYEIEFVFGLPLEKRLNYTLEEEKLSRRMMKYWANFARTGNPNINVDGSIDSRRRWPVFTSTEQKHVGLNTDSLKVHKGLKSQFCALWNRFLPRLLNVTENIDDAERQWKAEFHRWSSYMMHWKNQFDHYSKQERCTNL
Data set [4] has as its system Rattus norvegicus. The data set can be described thus: Reversal of scopolamine-induced memory impairment in albino Wistar rat assessed as effect on swimming speed at 2.5 mg/kg, ip by Morris water maze test. In kind it is functional, organism-based.
For data set [5], the system named is Rattus norvegicus. In words: Reversal of scopolamine-induced memory impairment in albino Wistar rat assessed as decrease in mean training period traveled distance to find platform at 2.5 mg/kg, ip by Morris water maze test. It counts as functional, organism-based.
For data set [6], the system named is Rattus norvegicus. In words: Reversal of scopolamine-induced memory impairment in albino Wistar rat assessed as increase in time spent in target quadrant in probe day at 2.5 mg/kg, ip by Morris water maze test. In kind it is functional, organism-based.
In data set [7] the target is Amyloid-beta precursor protein (Homo sapiens) (UniProt P05067). The data set can be described thus: Inhibition of HFIP-pretreated amyloid beta (1 to 42) (unknown origin) self-induced aggregation at 10 uM after 48 hrs by thioflavin-T fluorescence assay relative to control.
Chain of Amyloid-beta precursor protein (Homo sapiens) (P05067 whole entry): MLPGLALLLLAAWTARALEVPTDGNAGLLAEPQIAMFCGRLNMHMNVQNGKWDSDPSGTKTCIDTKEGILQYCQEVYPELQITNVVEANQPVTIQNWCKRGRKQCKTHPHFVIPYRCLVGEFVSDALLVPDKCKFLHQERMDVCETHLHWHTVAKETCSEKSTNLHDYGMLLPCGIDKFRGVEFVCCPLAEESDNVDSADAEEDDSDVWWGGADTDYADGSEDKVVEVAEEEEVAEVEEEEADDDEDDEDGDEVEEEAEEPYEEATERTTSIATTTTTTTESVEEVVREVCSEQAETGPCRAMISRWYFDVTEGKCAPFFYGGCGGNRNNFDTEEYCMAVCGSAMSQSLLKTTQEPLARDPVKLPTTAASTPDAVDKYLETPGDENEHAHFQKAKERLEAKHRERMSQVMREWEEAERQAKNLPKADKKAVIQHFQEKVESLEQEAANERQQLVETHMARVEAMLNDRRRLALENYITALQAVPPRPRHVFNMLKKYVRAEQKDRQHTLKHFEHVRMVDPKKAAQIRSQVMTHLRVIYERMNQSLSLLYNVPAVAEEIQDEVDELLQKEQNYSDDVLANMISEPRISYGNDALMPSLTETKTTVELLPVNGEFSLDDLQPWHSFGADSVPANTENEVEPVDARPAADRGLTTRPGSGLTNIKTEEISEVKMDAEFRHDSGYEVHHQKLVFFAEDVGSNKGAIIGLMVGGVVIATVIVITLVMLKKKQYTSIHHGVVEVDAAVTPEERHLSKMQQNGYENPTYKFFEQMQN
Data set [8] addresses Cholinesterase (Equus caballus) (UniProt P81908). The data set can be described thus: Potency index, ratio of donepezile IC50 to compound IC50 for inhibition of equine serum BuChE.
Data set [9] has as its system PC-12. In words: Neuroprotection against H2O2-induced cell death in rat PC12 cells assessed as cell viability at 10 uM preincubated for 3 hrs followed by H2O2 addition measured after 12 hrs by MTT assay relative to control. In kind it is functional. Particulars: read-out: Activity.
Data set [10] concerns the target T1, Cholinesterase. The data set can be described thus: Mixed-type inhibition of equine serum BuChE using varying levels of butyrylthiocholine iodide as substrate preincubated for 10 mins followed by substrate addition measured for 5 mins by Lineweaver-Burk plot analysis.
The subject of data set [11] is Rattus norvegicus. The data set can be described thus: Reversal of scopolamine-induced memory impairment in albino Wistar rat assessed as increase in time spent in target quadrant in probe day at 10 mg/kg, ip by Morris water maze test. In kind it is functional, organism-based.
Data set [12] has as its system PC-12. In words: Cytotoxicity against rat PC12 cells assessed as reduction in cell viability at 100 uM by MTT assay. It counts as cell-based. To be noted: pc-12, 100 µM.
In data set [13] the test system is PC-12. In words: Neuroprotection against H2O2-induced cell death in rat PC12 cells assessed as increase in cell viability at 1 uM preincubated for 3 hrs followed by H2O2 addition measured after 12 hrs by MTT assay. It counts as functional, cell-based.
Data set [14] deals with Rattus norvegicus. The data set can be described thus: Reversal of scopolamine-induced memory impairment in albino Wistar rat assessed as effect on swimming speed at 5 to 20 mg/kg, ip by Morris water maze test. In kind it is functional, organism-based.
The test system of data set [15] is Rattus norvegicus. In words: Reversal of scopolamine-induced memory impairment in albino Wistar rat assessed as decrease in mean training period scape latency at 10 mg/kg, ip by Morris water maze test. It counts as functional, organism-based.
Data set [16] addresses Cholinesterase (Equus caballus) (UniProt P81908). The data set can be described thus: Potency index, ratio of galantamine IC50 to compound IC50 for inhibition of equine serum BuChE.
Data set [17] deals with Rattus norvegicus. In words: Reversal of scopolamine-induced memory impairment in albino Wistar rat assessed as decrease in mean training period traveled distance to find platform at 10 mg/kg, ip by Morris water maze test. It counts as functional, organism-based.

Chain of Cholinesterase (Equus caballus) (P81908 whole entry): as the sequence (P81908 whole entry) above

Consider `Fc1ccc(C[n+]2cccc(Cn3c4ccccc4c4ccccc43)c2)cc1`, for which, in [1], the Ratio IC50 came out at 225. Further, the results for the IC50 in data set [2] and in data set [3] were 0.13 µM and 29.4 µM, respectively.
Take `Cc1cccc(C[n+]2ccc(Cn3c4ccccc4c4ccccc43)cc2)c1`: the Ratio IC50 in [1] turned out to be 24. Also, the IC50 in data set [2] came to 0.73 µM; in data set [3], 17.5 µM.
As for `Cc1ccc(C[n+]2cccc(Cn3c4ccccc4c4ccccc43)c2)cc1`, in data set [1], the Ratio IC50 was found to be 210. The results for the concentration for half-maximal inhibition (IC50) in [2] and in data set [3] were 0.11 µM and 23.1 µM, respectively.
For `Fc1ccccc1C[n+]1ccc(Cn2c3ccccc3c3ccccc32)cc1`, in that order: 18.9, 0.67 µM and 12.7 µM.
`COc1cc2c(cc1OC)C(=O)C(CC1CCN(Cc3ccccc3)CC1)C2` (stereo not given): the result in [4] was inactive. In addition, the outcome in [5] and in data set [6] was Active.
Take `c1ccc(C[n+]2ccc(Cn3c4ccccc4c4ccccc43)cc2)cc1`: the Ratio IC50 in [1] was 22.1. The values for the IC50 in data set [2] and in data set [3] were 0.58 µM and 12.8 µM, respectively.
For `Clc1ccccc1C[n+]1cccc(Cn2c3ccccc3c3ccccc32)c1` the same measures were more than 263, 0.38 µM and more than 100 µM.
For the compound `Cc1ccccc1C[n+]1cccc(Cn2c3ccccc3c3ccccc32)c1`, in data set [1], the Ratio IC50 was 239. The concentration for half-maximal inhibition (IC50) was determined as 0.22 µM in data set [2] and 52.5 µM in data set [3].
For `Cc1ccccc1C[n+]1ccc(Cn2c3ccccc3c3ccccc32)cc1` the same measures were 34, 0.35 µM and 11.9 µM.
For `Cc1ccc(C[n+]2ccc(Cn3c4ccccc4c4ccccc43)cc2)cc1`, in that order: 19.3, 0.81 µM and 15.6 µM.
For `Fc1cccc(C[n+]2ccc(Cn3c4ccccc4c4ccccc43)cc2)c1` the same measures were 19.3, 1.1 µM and 21.3 µM.
As to `Clc1ccccc1C[n+]1ccc(Cn2c3ccccc3c3ccccc32)cc1`, in [1], the Ratio IC50 came to 11.5. The results for the IC50 in data set [2] and in data set [3] were 0.59 µM and 6.8 µM, respectively.
For `Fc1cccc(C[n+]2cccc(Cn3c4ccccc4c4ccccc43)c2)c1` the same measures were more than 133, 0.75 µM and more than 100 µM.
On to `Clc1cccc(C[n+]2cccc(Cn3c4ccccc4c4ccccc43)c2)c1`, for which the Ratio IC50 in [1] came to 205. Moreover, the results for the concentration for half-maximal inhibition (IC50) in data set [2] and in [3] were 0.16 µM and 32.8 µM, respectively.
For `Fc1ccccc1C[n+]1cccc(Cn2c3ccccc3c3ccccc32)c1` the same measures were more than 270, 0.37 µM and more than 100 µM.
For `Clc1cccc(C[n+]2ccc(Cn3c4ccccc4c4ccccc43)cc2)c1` the same measures were 26.6, 0.35 µM and 9.3 µM.
As for `Nc1c2c(nc3ccccc13)CCCC2`, the inhibition in data set [7] was found to be 7.7%.
For the compound `Clc1ccc(C[n+]2cccc(Cn3c4ccccc4c4ccccc43)c2)cc1.[Cl-]`, the Ratio IC50 was determined as 274 in data set [1], 4.8 in data set [8] and 129 in [16]. The inhibition in [7] amounted to 49.9%. Further, the viability at 10 µM in [9] worked out at 66%. In [10], this compound gave a Ki of 0.09 µM. Further, the result in data set [11], in [15] and in data set [17] was Active. In [12], the Activity entry was “Toxic”. Further, the IC50 in [2] amounted to 0.073 µM; in data set [3] it was 20 µM. Moreover, the outcome in [13] and in data set [14] was inactive.
Consider `Clc1ccc(C[n+]2ccc(Cn3c4ccccc4c4ccccc43)cc2)cc1`, for which, in data set [1], the Ratio IC50 was 11.9. The results for the IC50 in data set [2] and in data set [3] were 1.6 µM and 19 µM, respectively.
As for `Fc1ccc(C[n+]2ccc(Cn3c4ccccc4c4ccccc43)cc2)cc1`, in data set [1], the Ratio IC50 came out at 21.1. For the same compound, the concentration for half-maximal inhibition (IC50) amounted to 0.89 µM in data set [2] and 18.8 µM in data set [3].
For the compound `c1ccc(C[n+]2cccc(Cn3c4ccccc4c4ccccc43)c2)cc1`, the Ratio IC50 in data set [1] stood at 229. Moreover, the values for the 50% inhibitory concentration (IC50) in [2] and in data set [3] were 0.27 µM and 61.9 µM, respectively.
As for `Cc1cccc(C[n+]2cccc(Cn3c4ccccc4c4ccccc43)c2)c1`, the Ratio IC50 in data set [1] turned out to be 236. In addition, the IC50 in data set [2] was found to be 0.28 µM; in [3] it was 66 µM.
